Laboratory results from ChEMBL document CHEMBL5316378, “DNA-Encoded Macrocyclic Peptide Libraries Enable the Discovery of a Neutral MDM2-p53 Inhibitor” (ACS Med Chem Lett, 2023).

Experiments:
Protein Mdm4 = molecular target: T1, Protein Mdm4 (Homo sapiens, UniProt O15151); assay: Inhibition of human MDM4 (1 to 116 residues) incubated for 1 hrs by fluorescence polarization assay
T1 sequence (O15151 whole entry): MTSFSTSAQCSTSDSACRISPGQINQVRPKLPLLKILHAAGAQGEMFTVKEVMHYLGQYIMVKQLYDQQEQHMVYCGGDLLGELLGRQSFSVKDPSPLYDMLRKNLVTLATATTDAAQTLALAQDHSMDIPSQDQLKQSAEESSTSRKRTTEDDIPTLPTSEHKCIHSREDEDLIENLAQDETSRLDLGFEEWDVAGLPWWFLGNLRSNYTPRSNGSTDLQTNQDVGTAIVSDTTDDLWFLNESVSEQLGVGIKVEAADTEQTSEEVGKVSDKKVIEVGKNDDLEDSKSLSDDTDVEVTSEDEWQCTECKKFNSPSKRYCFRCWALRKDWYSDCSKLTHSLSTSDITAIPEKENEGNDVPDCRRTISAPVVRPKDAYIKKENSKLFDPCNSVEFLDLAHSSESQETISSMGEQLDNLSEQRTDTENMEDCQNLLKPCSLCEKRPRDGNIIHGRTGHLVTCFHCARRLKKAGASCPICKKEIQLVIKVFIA

[1] = molecular target: T2, E3 ubiquitin-protein ligase Mdm2 (Homo sapiens, UniProt Q00987); assay: Inhibition of human MDM2 incubated for 1 hrs by TR-FRET assay
T2 sequence (Q00987 whole entry): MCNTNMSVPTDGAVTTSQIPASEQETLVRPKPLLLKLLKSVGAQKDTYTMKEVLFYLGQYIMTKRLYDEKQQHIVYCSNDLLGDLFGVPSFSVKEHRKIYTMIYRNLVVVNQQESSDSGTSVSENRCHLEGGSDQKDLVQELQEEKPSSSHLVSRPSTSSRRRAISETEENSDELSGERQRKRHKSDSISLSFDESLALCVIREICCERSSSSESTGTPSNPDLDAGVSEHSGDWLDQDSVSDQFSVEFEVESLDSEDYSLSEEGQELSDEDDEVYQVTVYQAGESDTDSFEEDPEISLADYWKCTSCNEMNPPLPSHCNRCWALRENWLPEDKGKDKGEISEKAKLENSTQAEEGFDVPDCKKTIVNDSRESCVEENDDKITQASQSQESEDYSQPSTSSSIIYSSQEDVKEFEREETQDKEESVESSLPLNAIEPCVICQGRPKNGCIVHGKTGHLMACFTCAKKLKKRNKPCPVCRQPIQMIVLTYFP

RS4-11 = assay: Anticancer activity against human RS4-11 cells assessed as cell viability incubated for 3 days by CellTiterGlo assay; type: functional, cell-based; conditions: RS4-11, 72 h
[2] = molecular target: Tumour suppressor p53/oncoprotein Mdm2 (Homo sapiens, UniProt Q00987); assay: Inhibition of human MDM2 to p53 (unknown origin) protein protein interaction; type: protein assay
Tumour suppressor p53/oncoprotein Mdm2, sequence (P04637 whole entry, the tested form may be a part): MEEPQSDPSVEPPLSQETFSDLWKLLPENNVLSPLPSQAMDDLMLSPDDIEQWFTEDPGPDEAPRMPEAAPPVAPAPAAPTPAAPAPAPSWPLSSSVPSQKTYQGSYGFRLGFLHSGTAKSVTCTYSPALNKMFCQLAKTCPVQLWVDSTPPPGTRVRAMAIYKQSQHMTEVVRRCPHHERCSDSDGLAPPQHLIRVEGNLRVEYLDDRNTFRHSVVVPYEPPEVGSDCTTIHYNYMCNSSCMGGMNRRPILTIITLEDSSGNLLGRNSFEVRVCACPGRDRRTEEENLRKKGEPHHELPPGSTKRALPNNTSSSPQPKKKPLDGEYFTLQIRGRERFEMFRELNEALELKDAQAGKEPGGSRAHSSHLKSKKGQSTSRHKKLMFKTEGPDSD
Tumour suppressor p53/oncoprotein Mdm2, sequence (Q00987 whole entry, the tested form may be a part): as the sequence (Q00987 whole entry) above

[3] = molecular target: T2, E3 ubiquitin-protein ligase Mdm2; assay: Displacement of FAM labeled p53 fragment from human MDM2 (1 to 116 residues) incubated for 1 hrs by fluorescence polarization assay
[4] = Displacement of FAM labeled PMI from human MDM2 (1 to 114 residues) by fluorescence polarization assay

Compound | IC50 (Protein Mdm4) [µM] | IC50 [1] [µM] | IC50 (RS4-11) [µM] | IC50 [2] [µM] | IC50 [3] [µM] | IC50 [4] [µM]
CC(C)[C@@H]1NC(=O)Cn2cc(nn2)C[C@@H](C(N)=O)NC(=O)[C@@H]2C[C@@H](CN2C(=O)c2ccccc2)NC(=O)[C@H](Cc2cccc(C(F)(F)F)c2)NC(=O)[C@@H](C(C)C)CNC(=O)CNC(=O)[C@H](Cc2ccccc2)NC(=O)[C@H](Cc2c[nH]c3ccccc23)NC1=O | 0.043 | 0.043 | > 50 |  |  | 
CC(C)[C@@H]1NC(=O)Cn2cc(nn2)C[C@H](C(N)=O)NC(=O)[C@@H]2C[C@@H](CN2C(=O)c2ccccc2)NC(=O)[C@H](Cc2cccc(C(F)(F)F)c2)NC(=O)[C@@H](C(C)C)CNC(=O)CNC(=O)[C@H](Cc2ccccc2)NC(=O)[C@H](Cc2c[nH]c3ccccc23)NC1=O | 0.009 | 0.009 | > 50 | 0.0089 |  | 
CC(C)[C@@H]1NC(=O)Cn2cc(nn2)CC(C(N)=O)NC(=O)[C@@H]2C[C@@H](CN2C(=O)c2ccccc2)NC(=O)[C@H](Cc2cccc(C(F)(F)F)c2)NC(=O)[C@@H](C(C)C)CNC(=O)CNC(=O)[C@H](Cc2ccccc2)NC(=O)[C@H](Cc2c[nH]c3ccccc23)NC1=O (stereo partly specified) |  |  |  |  | 0.09 | 2
CC[C@H](C)[C@@H]1NC(=O)[C@H](C(C)C)NC(=O)Cn2cc(nn2)CC(C(N)=O)NC(=O)[C@@H](Cc2ccsc2)NC(=O)[C@H](Cc2ccc(Cl)cc2)NC(=O)C[C@@H](C(=O)O)NC(=O)[C@H](CCSC)NC(=O)[C@H](CC(=O)O)NC1=O (stereo partly specified) |  |  |  |  | 8.1 | 16.9
